One series in a line: microsomal stability. The class given is in vitro ADME. The note with it: for half-life at 1 µM: pH 7.4. The procedure: An N-AS stock solution (10 mM dissolved in methanol) was diluted with methanol to make a concentration of 100 μM. A 10 μl aliquot of this solution was then diluted using 90 μl of 100 mM potassium phosphate buffer (pH 7.4). 10 μl of this N-AS solution was incubated at 37 °C with human or mouse liver microsomes (80 μl of 0.625 mg protein ml^−1 phosphate buffer) for 10 min before adding of 10 μl of an NADPH regenerating system to start the reaction. Reactions were stopped at 0, 15, 30, 60, and 90 min time-points by the addition of 200 μl cold acetonitrile (containing propranolol as internal standard at 20 ng ml^−1) and centrifuged at 17,968×g for 10 min. A 2 μl aliquot of the supernatant was injected into the LC-MS/MS system. The ratio of peak area of test compound/internal standard was used to determine the % remaining of N-AS over time.

The nature of a further series: single-dose plasma PK. The note with it: mouse; for AUC(0-inf): read-out: AUCinf (Plasma); for AUC(0-t): read-out: AUClast (Plasma). It counts as in vivo, C57BL/6 mice. The procedure:
C57BL/6 mice were administered N-AS (Sigma-Aldrich, 01912) at doses of 1 mg kg^−1 (i.v.) or 10 mg kg^−1 (p.o.). Venous blood samples were collected at 5, 15, and 30 min, and 1, 2, 4, 8, and 24 h postdose. A 30 μl of plasma was separated from whole blood by centrifugation and stored at −80 °C until analysis. Also, brain samples were collected at 1, 2, 4, and 24 h postdose and heart, liver, and kidney samples were collected at 24 h postdose, thoroughly rinsed with physiological saline and weighed. Twenty percentage of tissue homogenates were prepared by homogenizing the tissue samples with four volumes of saline. A 30 μl aliquot of plasma or a 50 μl aliquot of tissue homogenates were deproteinized by addition of 200 μl cold methanol (containing naringenin as internal standard at 20 ng ml^−1) and centrifuged at 15,974×g for 10 min. A 10 μl aliquot of the supernatant was injected into Agilent 6470 LC-MS/MS system. Separation was performed on a Synergy Polar RP column (4 μm particle size, 2.0 mm ×150 mm, Phenomenex) using a mobile phase that consisted of methanol and water (85:15, v/v) with 0.1% formic acid at a flow rate of 0.2 ml min^−1. Quantification was carried out using multiple reaction monitoring (MRM) at m/z 340.3→263.3 for N-AS and m/z 271.1→151.3 for naringenin (internal standard) in negative ionization mode and collision energy of 20 eV. p, and relative oral BA values were calculated as follows: BA% = AUCp.o. normalized by p.o. dose/AUCi.v. normalized by i.v. dose × 100.

For series [1], the target named is T1, COX2 of WT and APP/PS1 mice (Mus musculus, UniProt Q05769).
T1 construct: from tissue; host or cells: microglia and neurons isolated from brain of 9-months-old WT and APP/PS1 mice
T1 sequence (Q05769 18-604): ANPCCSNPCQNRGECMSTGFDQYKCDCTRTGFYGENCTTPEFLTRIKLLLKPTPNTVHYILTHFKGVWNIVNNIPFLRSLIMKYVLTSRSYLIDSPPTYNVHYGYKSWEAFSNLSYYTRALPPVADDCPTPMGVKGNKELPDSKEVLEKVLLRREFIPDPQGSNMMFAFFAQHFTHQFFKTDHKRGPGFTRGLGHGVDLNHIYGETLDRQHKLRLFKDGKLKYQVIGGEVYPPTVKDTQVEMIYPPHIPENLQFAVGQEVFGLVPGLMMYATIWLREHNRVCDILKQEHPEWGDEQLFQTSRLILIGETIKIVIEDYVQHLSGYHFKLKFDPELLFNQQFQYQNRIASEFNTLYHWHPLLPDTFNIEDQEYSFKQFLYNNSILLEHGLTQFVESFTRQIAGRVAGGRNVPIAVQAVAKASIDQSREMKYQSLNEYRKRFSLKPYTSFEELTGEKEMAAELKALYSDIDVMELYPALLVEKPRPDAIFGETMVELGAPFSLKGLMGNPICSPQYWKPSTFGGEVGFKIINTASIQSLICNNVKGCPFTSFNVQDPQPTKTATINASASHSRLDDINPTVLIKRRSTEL
The series is described as follows: in vivo COX2 acetylation in microglia and neuron after oral [14C] N-AS (Supplementary Fig 4d). The procedure:
Acetylation assays were performed according to previously described procedures with minor modifications. […] To confirm the N-AS-mediated COX2 acetylation, 10 μg COX2 (WT or mutants) was used incubated with [^14C] N-AS (2 μCi, ARC UK Ltd, ARC-1024) at 37 °C for 2 h. [^14C] aspirin (2 μCi, ARC UK Ltd, ARC-0473) was conducted as the positive control. The reactions were terminated by placing the reaction tubes in ice for 5 min. To evaluate in vivo neuronal and microglial COX2 acetylation, 10 μCi [^14C] N-AS was orally administrated to 9-months-old WT and APP/PS1 mice. After 1 h, neuron and microglia were isolated and sonicated in culture media. To immunoprecipitate acetylated COX2, the sample was incubated with COX2 antibody (Abcam, ab15191) at 4 °C for 24 h and precipitated by adding 50 μl of protein-A sepharose (GE Healthcare). Acetylated COX2 proteins bound to the beads were analyzed using a Tri-Carb 3110TR liquid scintillation counter (Perkin-Elmer).

In series [2] the test system is immortalized human microglia. The series is described as follows: live-cell phagocytosis assay (bead uptake, Supplementary Fig 6e,f). The class given is cell-based. The procedure:
Live-cell phagocytosis assays were performed according to previously described procedures with minor modifications. Briefly, in a glass bottom cell culture dish (SPL, 101350), adult SV40 immortalized human microglia cells (Applied Biologics Materials, T0251) were seeded for phagocytosis assay. […] After incubation, the microglia were treated with 0 or 2.5 μM N-AS (Sigma-Aldrich, 01912) at 37 °C for 2 h. FITC beads (Invitrogen) preopsonized in FBS (Gibco) were added at a concentration at 0.01% and then immediately observed using a laser scanning confocal microscope equipped with a live cell chamber system (FV3000, Olympus) for 2 h. Confocal images were collected every 5 min for 2 h and analyzed using the ImageJ software (National Institutes of Health).

Where [3] appears, read: C57BL/6, plasma, iv, i.v. 1 mg/kg.
The mark [4] stands for this setting: C57BL/6, plasma, po, p.o. 10 mg/kg.

Where “and” joins values, the source holds several entries; their conditions need not be identical. Equal entries are not always repeated. Where two headings read alike, the source gives them in different places.

As for `CCCCCCCCCCCCC/C=C/[C@@H](O)[C@H](CO)NC(C)=O` [N-AS, N-((2S,3R,E)-1,3-Dihydroxyoctadec-4-en-2-yl)acetamide], in “microsomal stability” (Mouse liver microsomes), the “% of remaining after 0.5 h” value was found to be 60.7% and the half-life (usually the time in which the quantity being followed falls by half) at 1 µM is 0.9 h. In addition, the half-life at 1 µM in “microsomal stability” (Human liver microsomes) was 0.6 h. Moreover, in “single-dose plasma PK” (setting [3]), the MRT (commonly a mean duration of stay, worked out from the concentration-time curve) was found to be 2.27 ± 0.11 h; the half-life was 3.45 ± 0.16 h; the AUC(0-inf) was determined as 667 ± 28.8 ng·h/mL; the AUC(0-t) came out at 665 ± 28.6 ng·h/mL. In the series “single-dose plasma PK” (C57BL/6, plasma, oral, p.o. 10 mg/kg vs i.v. 1 mg/kg, read-out: BA (Bioavailability)), the bioavailability – broadly, dose-corrected exposure relative to a reference, in per cent – is 8.25%. Further, in “single-dose plasma PK” (setting [4]), the Cmax (usually the highest concentration seen after dosing) was 683 ± 141 ng/mL, the MRT amounted to 3.1 ± 0.14 h, the Tmax (usually the time from dosing to the highest level) was found to be 0.25 h and the half-life is 3.68 ± 0.14 h. Further, in “single-dose plasma PK” (setting [4]), the AUC(0-inf) is 550 ± 71.3 ng·h/mL and the AUC(0-t) turned out to be 545 ± 72.1 ng·h/mL. Further, in “single-dose plasma PK” (i.v. 1 mg/kg), the “Co (Plasma)” value turned out to be 854.36 ± 128.60 ng/mL. Moreover, the “bioavailability (BA), in words” value in the series “single-dose plasma PK” (p.o.) is given as “low”. Besides, in series [1] (Microglia, APP/PS1 mice, relative to WT = 100, listed as [14C] N-AS), the “in vivo COX2 acetylation after oral [14C] N-AS (sFig 4d)” value (“in vivo COX2 acetylation after oral” below) was 223.529 and 255.556 and 247.368 and 238.095 and 191.304 and 233.333. Moreover, the “in vivo COX2 acetylation after oral” value in series [1] (Microglia, WT mice (set to 100)) is on record as 100. In addition, the “in vivo COX2 acetylation after oral” value in series [1] (Neuron, APP/PS1 mice, relative to WT = 100, listed as [14C] N-AS) is 104 and 95.8333 and 96.1539 and 114.286 and 112.5. Besides, the “in vivo COX2 acetylation after oral” value in series [1] (Neuron, WT mice (set to 100)) came to 100. Also, the “[14C] radioreactivity of COX2 from microglia” value in series [1] (oral [14C] N-AS, APP/PS1 vs WT microglia) is “more avidly bound to and acetylated COX2 of APP/PS1 microglia”. Also, in series [1] (oral [14C] N-AS, APP/PS1 vs WT neurons), the “[14C] radioreactivity of COX2 from neurons” value is reported as “no significant differences were observed in neurons”. In series [2] (Aβ-treated human microglia + N-AS), the “phagocytosis capacity, in words” value was “improved SPM production and phagocytosis capacity”. Also, the “Final number of beads per cell (at 120 min)” value in series [2] (human microglia, Ab 0mM, sFig 6f) is 20 and 14 and 16 and 11 and 13 and 15.

The values above are taken from publication PMC7217877, “N-AS-triggered SPMs are direct regulators of microglia in a model of Alzheimer’s disease” (Nature Communications, 2020).
